Assay results reported in US8013006B2.
pIC50: −log10 of the molar value. Like-named read-outs stand apart in the source and are kept apart here.

Tested on: HCV replicon
Test: microbe, parasite or virus in culture
Type: cell-based
Details: read-out: Replicon IC5Os
[1] = Replicon IC50 values are determined by firefly luciferase signal, bicistronic replicon, 2 days

Row | SMILES | pIC50 [1] | pIC50 (Hepatitis C virus, 48 h)
1 | C#CCOC(=O)Nc1cccc(-c2c(C#N)c3ccc(OC(C)C)cc3n2CC)c1 [Compound 588] | < 5.70 | –
2 | CCn1c(-c2cccc(NC(=O)OCCOC)c2)c(C#N)c2ccc(OC(C)C)cc21 [Compound 589] | 5.70 to 6.30 | –
3 | CCn1c(-c2cccc(NC(=O)OCC(C)C)c2)c(C#N)c2ccc(OC(C)C)cc21 [Compound 591] | < 5.70 | –
4 | CC#CCOC(=O)Nc1cccc(-c2c(C#N)c3ccc(OC(C)C)cc3n2CC)c1 [Compound 592] | < 5.70 | –
5 | CCn1c(-c2cccc(NC(=O)OCc3ccccc3)c2)c(C#N)c2ccc(OC(C)C)cc21 [Compound 593] | < 5.70 | –
6 | CCn1c(-c2cccc(NC(=O)OCCl)c2)c(C#N)c2ccc(OC(C)C)cc21 [Compound 594] | < 5.70 | –
7 | CCCCOC(=O)Nc1cccc(-c2c(C#N)c3ccc(OC(C)C)cc3n2CC)c1 [Compound 595] | < 5.70 | –
8 | C=CCOC(=O)Nc1cccc(-c2c(C#N)c3ccc(OC(C)C)cc3n2CC)c1 [Compound 596] | 5.70 to 6.30 | –
9 | C=CC(C)OC(=O)Nc1cccc(-c2c(C#N)c3ccc(OC(C)C)cc3n2CC)c1 (centres unmarked) [Compound 597] | < 5.70 | –
10 | CCCn1c(-c2cccc(NS(=O)(=O)CC)c2)c(C#N)c2ccc(OC)cc21 [Compound 599] | < 5.70 | –
11 | CCCNC(=O)Nc1cccc(-c2c(C#N)c3ccc(OC)cc3n2CCC)c1 [Compound 600] | < 5.70 | –
12 | CCOC(=O)Nc1cc(-c2c(C#N)c3ccc(OC(C)C)cc3n2CC)ccc1OC [Compound 603] | < 5.70 | –
13 | CCOC(=O)Nc1ccc(F)c(-c2c(C#N)c3ccc(OC(C)C)cc3n2CC)c1 [Compound 604] | < 5.70 | –
14 | CCOC(=O)Nc1cccc(-c2c(C#N)c3cc(N4CCOCC4)ccc3n2CC)c1 [Compound 605] | < 5.70 | –
15 | CCCS(=O)(=O)Nc1ccc(-c2c(C#N)c3cc(N4CCOCC4)ccc3n2CC)cc1 [Compound 608] | 5.70 to 6.30 | –
16 | CCn1c(-c2ccc(NS(=O)(=O)CC)cc2)c(C#N)c2cc(N3CCOCC3)ccc21 [Compound 609] | 5.70 to 6.30 | –
17 | CCn1c(-c2ccc(NS(=O)(=O)CC(F)(F)F)cc2)c(C#N)c2cc(Cl)ccc21 [Compound 615] | < 5.70 | –
18 | CCNC(=O)Nc1ccc(-c2c(C#N)c3cc(Cl)ccc3n2CC)cc1 [Compound 620] | 5.70 to 6.30 | –
19 | CCCn1c(-c2ccc(NC(=O)OCC)cc2)c(C#N)c2ccc(OC)cc21 [Compound 624] | 5.70 to 6.30 | –
20 | CCCOC(=O)Nc1ccc(-c2c(C#N)c3ccc(OC)cc3n2CCC)cc1 [Compound 625] | > 6.30 | –
21 | CCn1c(-c2cccc(NS(=O)(=O)CCCCl)c2)c(C#N)c2cc(Cl)ccc21 [Compound 629] | < 5.70 | –
22 | CC(C)CCn1c(-c2ccc(NS(C)(=O)=O)cc2)c(C#N)c2cc(Cl)ccc21 [Compound 630] | 5.70 to 6.30 | –
23 | C=Cn1c(-c2ccc(NS(C)(=O)=O)cc2)c(C#N)c2ccc(OC)cc21 [Compound 632] | 5.70 to 6.30 | –
24 | C=Cn1c(-c2ccc(NS(=O)(=O)CCC)cc2)c(C#N)c2ccc(OC)cc21 [Compound 634] | 5.70 to 6.30 | –
25 | C=Cn1c(-c2ccc(NS(=O)(=O)CCCCl)cc2)c(C#N)c2ccc(OC)cc21 [Compound 636] | > 6.30 | –
26 | CCn1c(-c2ccc(NC(=O)OCCCl)cc2)c(C#N)c2ccc(OC)cc21 [Compound 637] | – | > 6.30
27 | CCCn1c(-c2cccc(NS(=O)(=O)CCC)c2)c(C#N)c2ccc(OC)cc21 [Compound 639] | < 5.70 | –

Row | SMILES | pIC50 [1] | pIC50 (Hepatitis C virus, 48 h)
28 | CCCn1c(-c2ccc(NC(=O)OCCF)cc2)c(C#N)c2ccc(OC)cc21 [Compound 640] | 5.70 to 6.30 | –
29 | CCCn1c(-c2ccc(N(C)S(=O)(=O)CC)cc2)c(C#N)c2ccc(OC)cc21 [Compound 643] | 5.70 to 6.30 | –
30 | CCC(=O)Nc1ccc(-c2c(C#N)c3cc(OC)ccc3n2CC)cc1 [Compound 644] | < 5.70 | –
31 | CCn1c(-c2ccc(NC(=O)c3ccc4c(c3)OCO4)cc2)c(C#N)c2ccccc21 [Compound 645] | < 5.70 | –
32 | CCn1c(-c2ccc(NC(=O)c3ccco3)cc2)c(C#N)c2ccccc21 [Compound 646] | 5.70 to 6.30 | –
33 | CCn1c(-c2ccc(C(=O)Nc3ccc(Cl)cc3)cc2)c(C#N)c2cc(OC)ccc21 [Compound 647] | < 5.70 | –
34 | CCn1c(-c2ccc(C(=O)Nc3ccc(Cl)c(Cl)c3)cc2)c(C#N)c2cc(OC)ccc21 [Compound 648] | 5.70 to 6.30 | –
35 | CCCn1c(-c2ccc(N3CCCS3(=O)=O)cc2)c(C#N)c2ccc(OC)cc21 [Compound 649] | 5.70 to 6.30 | –
36 | CCn1c(-c2ccc(NS(=O)(=O)CCN3CCSCC3)cc2)c(C#N)c2ccc(OC)cc21 [Compound 654] | < 5.70 | –
37 | COc1ccc2c(C#N)c(-c3ccc(NS(C)(=O)=O)cc3)n(CC3CCCC3)c2c1 [Compound 655] | < 5.70 | –
38 | CCn1c(-c2ccc(N)cc2)c(C#N)c2ccc(OC(F)(F)F)cc21 [Compound 656] | < 5.70 | –
39 | CCn1c(-c2ccc(NS(=O)(=O)CC)cc2)c(C#N)c2c(Cl)cccc21 [Compound 657] | < 5.70 | –
40 | N#Cc1c(-c2ccc(N3CCCS3(=O)=O)cc2)n(CC2CC2)c2cc(OC(F)F)ccc12 [Compound 659] | 5.70 to 6.30 | –
41 | CCCS(=O)(=O)Nc1ccccc1-c1c(C#N)c2ccc(OC)cc2n1CC [Compound 662] | – | > 6.30
42 | CC(C)Oc1ccc2c(C#N)c(-c3ccc(O)c(N)c3)[nH]c2c1 [Compound 663] | < 5.70 | –
43 | CCCOC(=O)Nc1ccc(F)c(-c2c(C#N)c3ccc(OC(C)C)cc3n2CC)c1 [Compound 664] | < 5.70 | –
44 | CCn1c(-c2cc(NC(=O)OCCCl)ccc2F)c(C#N)c2ccc(OC(C)C)cc21 [Compound 665] | < 5.70 | –
45 | CCn1c(-c2cccc(CN(C)S(C)(=O)=O)c2)c(C#N)c2ccc(OC)cc21 [Compound 673] | < 5.70 | –
46 | CCS(=O)(=O)Nc1ccc(-c2c(C#N)c3ccc(OC)cc3n2CCOC)cc1 [Compound 674] | < 5.70 | –
47 | CCn1c(-c2ccc3c(c2)CCN3)c(C#N)c2ccc(OC)cc21 [Compound 678] | < 5.70 | –
48 | CCCS(=O)(=O)Nc1ccc(-c2c(C#N)c3ccc(OC(F)F)cc3n2CC2CC2)cc1 [Compound 682] | 5.70 to 6.30 | –
49 | N#Cc1c(-c2ccc(NS(=O)(=O)CCCCl)cc2)n(CC2CC2)c2cc(OC(F)F)ccc12 [Compound 683] | 5.70 to 6.30 | –
50 | CCS(=O)(=O)N(C)c1ccc(-c2c(C#N)c3ccc(OC)cc3n2C(C)C)cc1 [Compound 684] | < 5.70 | –
51 | CCCn1c(-c2ccc(N(C)S(=O)(=O)CC)cc2)c(C#N)c2ccc(OC(F)F)cc21 [Compound 685] | 5.70 to 6.30 | –
52 | CCS(=O)(=O)N(C)c1ccc(-c2c(C#N)c3ccc(OC)cc3n2CC2CC2)cc1 [Compound 686] | 5.70 to 6.30 | –
53 | CCS(=O)(=O)N(C)c1ccc(-c2c(C#N)c3ccc(OC(F)F)cc3n2C)cc1 [Compound 687] | > 6.30 | –
54 | COc1ccc2c(C#N)c(-c3ccc(N(C)S(C)(=O)=O)cc3)n(CC3CC3)c2c1 [Compound 688] | 5.70 to 6.30 | –

Row | SMILES | pIC50 [1] | pIC50 (Hepatitis C virus, 48 h)
55 | CCS(=O)(=O)N(C)c1ccc(-c2c(C#N)c3ccc(OC)cc3n2C)cc1 [Compound 694] | 5.70 to 6.30 | –
56 | CCCn1c(-c2ccc(N(C)S(C)(=O)=O)cc2)c(C#N)c2ccc(OC)cc21 [Compound 695] | 5.70 to 6.30 | –
57 | COc1ccc2c(C#N)c(-c3ccc(N(C)S(C)(=O)=O)cc3)n(C(C)C)c2c1 [Compound 696] | 5.70 to 6.30 | –
58 | CCn1c(-c2ccc(N(C)S(=O)(=O)CCN3CCCC3)cc2)c(C#N)c2ccc(OC)cc21 [Compound 697] | – | > 6.30
59 | CCn1c(-c2ccc(N(C)S(=O)(=O)CCN3CCSCC3)cc2)c(C#N)c2ccc(OC)cc21 [Compound 698] | – | 5.70 to 6.30
60 | CCCS(=O)(=O)N1CCc2cc(-c3c(C#N)c4ccc(OC)cc4n3CC)ccc21 [Compound 703] | 5.70 to 6.30 | –
61 | CCn1c(-c2cccc(NS(=O)(=O)NCCCl)c2)c(C#N)c2ccc(OC)cc21 [Compound 704] | < 5.70 | –
62 | CCn1c(-c2cccc(N3CCNS3(=O)=O)c2)c(C#N)c2ccc(OC)cc21 [Compound 705] | < 5.70 | –
63 | CCCCn1c(-c2ccc(NS(=O)(=O)CCC)cc2)c(C#N)c2ccc(OC)cc21 [Compound 708] | 5.70 to 6.30 | –
64 | CCn1c(-c2ccc3[nH]ccc3c2)c(C#N)c2ccc(OC)cc21 [Compound 712] | < 5.70 | –
65 | N#Cc1cn(CC2CC2)c2cc(OC(F)(F)F)ccc12 [Compound 714] | 5.70 to 6.30 | –
66 | CCn1c(-c2ccc(NS(C)(=O)=O)cc2)c(C#N)c2ccc(OC(F)(F)F)cc21 [Compound 715] | > 6.30 | –
67 | COc1ccc2c(C#N)c(-c3ccc(N4CCCS4(=O)=O)cc3)n(CC3CC3)c2c1 [Compound 716, 2-[4-(1,1-dioxidoisothiazolidin-2-yl)phenyl]-1-cyclopropylmethyl-6-methoxy-1H-indole-3-carbonitrile] | – | 5.70 to 6.30
68 | COc1ccc2c(C#N)c(-c3ccc(S(=O)(=O)NC4CC4)cc3)n(CC3CCCC3)c2c1 [Compound 718] | 5.70 to 6.30 | –
69 | COc1ccc2c(C#N)c(-c3ccc(S(N)(=O)=O)cc3)n(CC3CCCC3)c2c1 [Compound 719] | < 5.70 | –
70 | CCn1c(-c2ccc(N3CCCS3(=O)=O)cc2)c(C#N)c2ccc(OCCN3CCCC3)cc21 [Compound 728] | > 6.30 | –
71 | CCn1c(-c2ccc(N3CCCS3(=O)=O)cc2)c(C#N)c2ccc(OCCN3CCOCC3)cc21 [Compound 730] | > 6.30 | –
72 | N#Cc1c(-c2ccc(N)cc2)n(CC2CC2)c2cc(OC(F)F)ccc12 [Compound 733] | < 5.70 | –
73 | COCCOC(=O)Nc1ccc(-c2c(C#N)c3ccc(OC(F)F)cc3n2CC2CC2)cc1 [Compound 739] | < 5.70 | –
74 | CCNC(=O)Nc1ccc(-c2c(C#N)c3ccc(OC(F)F)cc3n2CC2CC2)cc1 [Compound 740] | 5.70 to 6.30 | –
75 | CCOC(=O)Nc1cccc(-c2c(C#N)c3ccc(OC(F)F)cc3n2CC2CC2)c1 [Compound 745] | – | > 6.30
76 | CCCOC(=O)Nc1cccc(-c2c(C#N)c3ccc(OC(F)F)cc3n2CC2CC2)c1 [Compound 746] | < 5.70 | –
77 | CCCS(=O)(=O)N1CCc2ccc(-c3c(C#N)c4ccc(OC)cc4n3CC)cc21 [Compound 754] | 5.70 to 6.30 | –
78 | CCn1c(-c2ccc(NC(=O)c3ccno3)cc2)c(C#N)c2ccccc21 [Compound 755] | – | > 6.30
79 | CCn1c(-c2ccc(NC(=O)c3snnc3C)cc2)c(C#N)c2ccccc21 [Compound 756] | – | > 6.30
80 | CCC(=O)Nc1ccc(-c2c(C#N)c3ccc(OC(C)C)cc3n2CC)cc1 [Compound 759] | – | > 6.30
